Laboratory results as given in article PMC4718940, “Preclinical studies of 5-fluoro-2′-deoxycytidine and tetrahydrouridine in pediatric brain tumors” (Journal of Neuro-Oncology, 2015).
Read-outs that look alike come from different tables or passages of the source.

How the values were obtained:
Type in all cases: cell-based
mouse EP neurospheres = assay: 72 h dose response, CellTiter-Glo, mouse EP neurospheres; conditions: 72 hr treatment, 384-well; for EC50: read-out: EP EC50
Method: (§1) In the Discovery Phase, the initial studies included the screen of a library of 9 compounds against epigenetic regulators at a single concentration and a dose-response on G3 MB, EP, and CPC tumor cells, as well as HEPG2 and BJ (Fig. 1). The library and dose response studies are described in the Supplementary Material.
(§2) Briefly, cells (see Supplementary Table S2 for cell identity) were plated in 384-well plates (Corning) in 30 µL of supplemented neurobasal medium by using an automated plate filler (Wellmate, Matrix). After 24 hr, 28 nL of compound was transferred via pin tool, resulting in a final drug concentration of approximately 4 nM to 10 µM. After 72 hr of treatment, CellTiter-Glo reagent (Promega) was added, and the luminescence signal was measured using an automated Envision plate reader (Perkin-Elmer). Luminescence data were normalized by log10-transformation prior to calculating the percentage of inhibition using the following equation: 100 × (negative control mean − compound value)/(negative control mean − positive control mean). Our negative control represents cells treated with 0.1% DMSO with 0% inhibition. Cells treated with 35 µM cycloheximide (G3 MB tumor spheres) or 10 µM panobinostat (EP and CPC cells) were used as positive controls with 100% inhibition. The response of cells to the compounds were normalized to that of the positive controls present in each plate screened, shown in the Y axis of the dose-response curve. […] Unless otherwise reported, the y-axis for each dose response curve in the figures was independently normalized to the range from 0 to 1 and therefore reported as ‘relative growth inhibition’. High through put assay data were analyzed by using our in-house Robust Interpretation of Screening Experiments (RISE) application that was written in Pipeline Pilot (Accelrys, v. 8.5) and R (R Development Core Team).

[1] = system: Mouse G3 MB Myc1 neurospheres; assay: 72 h dose response, CellTiter-Glo, mouse G3 MB neurospheres; conditions: 72 hr treatment, 384-well; for EC50: read-out: G3-MB EC50
Method: as §1, §2

[2] = system: mouse CPC neurospheres (CPC300); assay: 72 h dose response, CellTiter-Glo, mouse CPC neurospheres; conditions: 72 hr treatment, 384-well; for EC50: read-out: CPC300 EC50
Method: as §1, §2

| SMILES | EC50 (mouse EP neurospheres; Mus musculus) | EC50 ([2]; Mus musculus) | G3-MB EC50 [1] | EC50 (mouse EP neurospheres) | EC50 [1] | EC50 [2] | other results |
| --- | --- | --- | --- | --- | --- | --- | --- |
| Nc1nccc2c1ncn2C1C=C(CO)C(O)C1O (stereo not shown) [3-Deazaneplanocin A] | 110 nM | 310 nM |  |  |  |  | EC50 ([1]; Mus musculus): 360 nM |
| Nc1ncn([C@@H]2O[C@H](CO)[C@@H](O)[C@H]2O)c(=O)n1 [5-Azacytidine] | 5300 nM | 1080 nM | Inactive |  |  |  |  |
| Nc1ncn([C@H]2C[C@H](O)[C@@H](CO)O2)c(=O)n1 [Decitabine] | 500 nM | 6700 nM |  |  |  |  | EC50 ([1]; Mus musculus): 960 nM |
| CCNC(=O)C[C@@H]1N=C(c2ccc(Cl)cc2)c2cc(OC)ccc2-n2c(C)nnc21 [I-BET] |  |  |  | 4100 nM | 900 nM | > 5500 nM |  |
| Cc1sc2c(c1C)C(c1ccc(Cl)cc1)=N[C@@H](CC(=O)OC(C)(C)C)c1nnc(C)n1-2 [JQ1] |  |  |  | 1700 nM | 700 nM | > 5600 nM |  |
| O=C(CCCCCCC(=O)Nc1ccccc1)NO [SAHA (Vorinostat), Vorinostat] |  |  | Inactive |  |  |  |  |
| CC(/C=C/C(=O)NO)=C\[C@@H](C)C(=O)c1ccc(N(C)C)cc1 [Trichostatin A] |  |  |  | 400 nM | 100 nM | 2100 nM |  |
| O=c1ncccn1[C@@H]1O[C@H](CO)[C@@H](O)[C@H]1O [Zebularin, Zebularine] |  |  | Inactive |  |  |  | EP EC50 (mouse EP neurospheres): Inactive; CPC300 EC50 [2]: Inactive |
